{
  "source": "patent US20030236175A1",
  "about": "“Process for well fluids base oil via metathesis of alpha-olefins” (priority 2002, published 2003)",
  "system": "leptocheirus plumulosus",
  "format": "in vivo",
  "from_the_text": "This protocol uses leptocheirus plumulosus in a 10-day sediment toxicity test using a reference standard C16-18 IO (internal olefin) (sometimes also designated as C16-C18 IO, C1618 IO, or C16-18 IO) having approximately 65% C16 and 35% C18 olefin.",
  "data": [
    {"smiles": "CCCCCCCCC=CCCCCCCCC", "note": "[Example 11, 9-octadecene]", "values": [
      {"measurement": "Toxicity, mg/kg", "setting": "LC50, 10-day sediment toxicity test, leptocheirus plumulosus", "result": "11,279 mg/kg"},
      {"measurement": "Toxicity ratio", "setting": "ratio of LC50 values, sample vs reference standard C16-18 IO (Equation 1), passing <= 1.0", "result": 0.63}
    ]}
  ]
}
